From patent US11028079B2 (ConverGene LLC, priority 2015, dated 2021)
pKd: −log10 of the molar value.

The compounds below were run against T1, BRD4 bromodomains (Homo sapiens, UniProt O60885) (assay: BROMOscan bromodomain competition binding assay (DiscoveRx)). Settings: Kd from 11 compound concentrations ranging from 0 to 10 μM, read-out: BROMOscan Relative Activity.
T1 construct: fused on or other part: T7 phage capsid protein (phage-display fusion; the phage DNA is read out by qPCR)
Procedure, shortened: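 Compounds in 0.1% DMSO/0.9% MEG competed with a solid-phase acetylated peptide for T7 phage-fused BRD4 bromodomains, with the retained bromodomain measured by qPCR.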

| pKd | SMILES |
| --- | --- |
| > 6.30 | Cc1noc(C)c1-c1ccc2nc(C(=O)NCc3cncc(Cl)c3)nc(NCc3cccc(Cl)c3)c2c1 [Example 191, 4-((3-chlorobenzyl)amino)-N-((5-chloropyridin-3-yl)methyl)-6-(3,5-dimethylisoxazol-4-yl)quinazoline-2-carboxamide] |
| > 6.30 | Cc1noc(C)c1-c1ccc2nc(C(=O)NCc3cncc(F)c3)nc(NCc3cccc(Cl)c3)c2c1 [Example 192, 4-((3-chlorobenzyl)amino)-6-(3,5-dimethylisoxazol-4-yl)-N-((5-fluoropyridin-3-yl)methyl)quinazoline-2-carboxamide] |
| > 6.30 | Cc1cncc(CNC(=O)c2nc(NCc3cccc(Cl)c3)c3cc(-c4c(C)noc4C)ccc3n2)c1 [Example 193, 4-((3-chlorobenzyl)amino)-6-(3,5-dimethylisoxazol-4-yl)-N-((5-methylpyridin-3-yl)methyl)quinazoline-2-carboxamide] |
| > 6.30 | Cc1nn(C)c(C)c1CNC(=O)c1nc(NCc2cccc(Cl)c2)c2cc(-c3c(C)noc3C)ccc2n1 [Example 194, 4-((3-chlorobenzyl)amino)-6-(3,5-dimethylisoxazol-4-yl)-N-((1,3,5-trimethyl-1H-pyrazol-4-yl)methyl)quinazoline-2-carboxamide] |
| > 6.30 | CC(=O)N1CCN(c2nc(NCc3cncc(Cl)c3)c3cc(-c4c(C)noc4C)ccc3n2)CC1 [Example 195, 1-(4-(4-(((5-chloropyridin-3-yl)methyl)amino)-6-(3,5-dimethylisoxazol-4-yl)quinazolin-2-yl)piperazin-1-yl)ethanone] |
| > 6.30 | Cc1nc(CNC(=O)c2nc(NCc3cccc(Cl)c3)c3cc(-c4c(C)noc4C)ccc3n2)cs1 [Example 196, 4-((3-chlorobenzyl)amino)-6-(3,5-dimethylisoxazol-4-yl)-N-((2-methylthiazol-4-yl)methyl)quinazoline-2-carboxamide] |
| > 6.30 | Cc1ccc(CNC(=O)c2nc(NCc3cccc(Cl)c3)c3cc(-c4c(C)noc4C)ccc3n2)cn1 [Example 197, 4-((3-chlorobenzyl)amino)-6-(3,5-dimethylisoxazol-4-yl)-N-((6-methylpyridin-3-yl)methyl)quinazoline-2-carboxamide] |
| > 6.30 | Cc1noc(C)c1-c1ccc2nc(C(=O)NC3CN(C)C3)nc(NCc3cccc(Cl)c3)c2c1 [Example 198, 4-((3-chlorobenzyl)amino)-6-(3,5-dimethylisoxazol-4-yl)-N-(1-methylazetidin-3-yl)quinazoline-2-carboxamide] |
| > 6.30 | CC(=O)N1CCC(NC(=O)c2nc(NCc3cccc(Cl)c3)c3cc(-c4c(C)noc4C)ccc3n2)CC1 [Example 199, N-(1-acetylpiperidin-4-yl)-4-((3-chlorobenzyl)amino)-6-(3,5-dimethylisoxazol-4-yl)quinazoline-2-carboxamide] |
| > 6.30 | Cc1noc(C)c1-c1ccc2nc(C(=O)NCC3CN(C)C3)nc(NCc3cccc(Cl)c3)c2c1 [Example 200, 4-((3-chlorobenzyl)amino)-6-(3,5-dimethylisoxazol-4-yl)-N-((1-methylazetidin-3-yl)methyl)quinazoline-2-carboxamide] |
| > 6.30 | Cc1noc(C)c1-c1ccc2nc(C(=O)NC3CCN(S(C)(=O)=O)CC3)nc(NCc3cccc(Cl)c3)c2c1 [Example 201, 4-((3-chlorobenzyl)amino)-6-(3,5-dimethylisoxazol-4-yl)-N-(1-(methylsulfonyl)piperidin-4-yl)quinazoline-2-carboxamide] |
| > 6.30 | Cc1noc(C)c1-c1ccc2nc(C(=O)NCc3ccnc(Cl)c3)nc(NCc3cccc(Cl)c3)c2c1 [Example 202, 4-((3-chlorobenzyl)amino)-N-((2-chloropyridin-4-yl)methyl)-6-(3,5-dimethylisoxazol-4-yl)quinazoline-2-carboxamide] |
| > 6.30 | Cc1noc(C)c1-c1ccc2nc(C(=O)NCc3ccc(Cl)nc3)nc(NCc3cccc(Cl)c3)c2c1 [Example 203, 4-((3-chlorobenzyl)amino)-N-((6-chloropyridin-3-yl)methyl)-6-(3,5-dimethylisoxazol-4-yl)quinazoline-2-carboxamide] |
| > 6.30 | Cc1noc(C)c1-c1ccc2nc(C(=O)NC3CCS(=O)(=O)CC3)nc(NCc3cccc(Cl)c3)c2c1 [Example 204, 4-((3-chlorobenzyl)amino)-6-(3,5-dimethylisoxazol-4-yl)-N-(1,1-dioxidotetrahydro-2H-thiopyran-4-yl)quinazoline-2-carboxamide] |
| > 6.30 | Cc1nn(C)cc1CNC(=O)c1nc(NCc2cccc(Cl)c2)c2cc(-c3c(C)noc3C)ccc2n1 [Example 205, 4-((3-chlorobenzyl)amino)-N-((1,3-dimethyl-1H-pyrazol-4-yl)methyl)-6-(3,5-dimethylisoxazol-4-yl)quinazoline-2-carboxamide] |
| > 6.30 | Cc1noc(C)c1-c1ccc2nc(C(=O)NCc3ccnc(Cl)c3)nc(NCc3cncc(Cl)c3)c2c1 [Example 206, 4-(((5-chloropyridin-3-yl)methyl)amino)-N-((2-chloropyridin-4-yl)methyl)-6-(3,5-dimethylisoxazol-4-yl)quinazoline-2-carboxamide] |

| pKd | SMILES |
| --- | --- |
| > 6.30 | Cc1noc(C)c1-c1ccc2nc(C(=O)NCc3ccncc3)nc(NCc3cncc(Cl)c3)c2c1 [Example 207, 4-(((5-chloropyridin-3-yl)methyl)amino)-6-(3,5-dimethylisoxazol-4-yl)-N-(pyridin-4-ylmethyl)quinazoline-2-carboxamide] |
| > 6.30 | Cc1noc(C)c1-c1ccc2nc(C(=O)NCc3ccncc3Cl)nc(NCc3cccc(Cl)c3)c2c1 [Example 208, 4-((3-chlorobenzyl)amino)-N-((3-chloropyridin-4-yl)methyl)-6-(3,5-dimethylisoxazol-4-yl)quinazoline-2-carboxamide] |
| > 6.30 | Cc1noc(C)c1-c1ccc2nc(C(=O)NC3CCN(C)CC3)nc(NCc3cncc(Cl)c3)c2c1 [Example 209, 4-(((5-chloropyridin-3-yl)methyl)amino)-6-(3,5-dimethylisoxazol-4-yl)-N-(1-methylpiperidin-4-yl)quinazoline-2-carboxamide] |
| 5.30 to 6.30 | Cc1noc(C)c1-c1ccc2nc(C3=CCN(S(C)(=O)=O)CC3)nc(NCc3cccc(Cl)c3)c2c1 [Example 210, N-(3-chlorobenzyl)-6-(3,5-dimethylisoxazol-4-yl)-2-(1-(methylsulfonyl)-1,2,3,6-tetrahydropyridin-4-yl)quinazolin-4-amine] |
| > 6.30 | Cc1noc(C)c1-c1ccc2nc(C(=O)N(C)C3CCN(C)CC3)nc(NCc3cccc(Cl)c3)c2c1 [Example 211, 4-((3-chlorobenzyl)amino)-6-(3,5-dimethylisoxazol-4-yl)-N-methyl-N-(1-methylpiperidin-4-yl)quinazoline-2-carboxamide] |
| > 6.30 | Cc1ncc(CNC(=O)c2nc(NCc3cccc(Cl)c3)c3cc(-c4c(C)noc4C)ccc3n2)s1 [Example 212, 4-((3-chlorobenzyl)amino)-6-(3,5-dimethylisoxazol-4-yl)-N-((2-methylthiazol-5-yl)methyl)quinazoline-2-carboxamide] |
| > 6.30 | Cc1cnc(CNC(=O)c2nc(NCc3cccc(Cl)c3)c3cc(-c4c(C)noc4C)ccc3n2)s1 [Example 213, 4-((3-chlorobenzyl)amino)-6-(3,5-dimethylisoxazol-4-yl)-N-((5-methylthiazol-2-yl)methyl)quinazoline-2-carboxamide] |
| > 6.30 | Cc1csc(CNC(=O)c2nc(NCc3cccc(Cl)c3)c3cc(-c4c(C)noc4C)ccc3n2)n1 [Example 214, 4-((3-chlorobenzyl)amino)-6-(3,5-dimethylisoxazol-4-yl)-N-((4-methylthiazol-2-yl)methyl)quinazoline-2-carboxamide] |
| > 6.30 | Cc1noc(C)c1-c1ccc2nc(C(=O)NCc3ccncc3F)nc(NCc3cccc(Cl)c3)c2c1 [Example 215, 4-((3-chlorobenzyl)amino)-6-(3,5-dimethylisoxazol-4-yl)-N-((3-fluoropyridin-4-yl)methyl)quinazoline-2-carboxamide] |
| > 6.30 | Cc1cnc(CNC(=O)c2nc(NCc3cccc(Cl)c3)c3cc(-c4c(C)noc4C)ccc3n2)o1 [Example 216, 4-((3-chlorobenzyl)amino)-6-(3,5-dimethylisoxazol-4-yl)-N-((5-methyloxazol-2-yl)methyl)quinazoline-2-carboxamide] |
| > 6.30 | Cc1cnccc1CNC(=O)c1nc(NCc2cccc(Cl)c2)c2cc(-c3c(C)noc3C)ccc2n1 [Example 217, 4-((3-chlorobenzyl)amino)-6-(3,5-dimethylisoxazol-4-yl)-N-((3-methylpyridin-4-yl)methyl)quinazoline-2-carboxamide] |
| 5.30 to 6.30 | Cc1cc(NC(=O)c2nc(NCc3cccc(Cl)c3)c3cc(-c4c(C)noc4C)ccc3n2)ccn1 [Example 218, 4-((3-chlorobenzyl)amino)-6-(3,5-dimethylisoxazol-4-yl)-N-(2-methylpyridin-4-yl)quinazoline-2-carboxamide] |
| 5.30 to 6.30 | Cc1ccc(NC(=O)c2nc(NCc3cccc(Cl)c3)c3cc(-c4c(C)noc4C)ccc3n2)cn1 [Example 219, 4-((3-chlorobenzyl)amino)-6-(3,5-dimethylisoxazol-4-yl)-N-(6-methylpyridin-3-yl)quinazoline-2-carboxamide] |
| > 6.30 | Cc1ccncc1NC(=O)c1nc(NCc2cccc(Cl)c2)c2cc(-c3c(C)noc3C)ccc2n1 [Example 220, 4-((3-chlorobenzyl)amino)-6-(3,5-dimethylisoxazol-4-yl)-N-(4-methylpyridin-3-yl)quinazoline-2-carboxamide] |
| 5.30 to 6.30 | Cc1noc(C)c1-c1ccc2nc(C(=O)Nc3cncc(F)c3)nc(NCc3cccc(Cl)c3)c2c1 [Example 221, 4-((3-chlorobenzyl)amino)-6-(3,5-dimethylisoxazol-4-yl)-N-(5-fluoropyridin-3-yl)quinazoline-2-carboxamide] |
| < 5.30 | Cc1noc(C)c1-c1ccc2nc(C(=O)Nc3ccc(Cl)nc3)nc(NCc3cccc(Cl)c3)c2c1 [Example 222, 4-((3-chlorobenzyl)amino)-N-(6-chloropyridin-3-yl)-6-(3,5-dimethylisoxazol-4-yl)quinazoline-2-carboxamide] |
